Data reported in patent US20110144040A1, “Acteoside and acteoside-rich plant extracts for increasing athletic performance in humans” (MN Intellectual Property Corp, LLC, priority 2009, published 2011).

Assays:
[1] = test system: athletic performance in humans; assay: oral acteoside supplementation for athletic performance in exercising humans; format: in vivo, human; conditions: peroral, used according to recommended protocols
Excerpt: Athletic performance is defined as any sporting activity where muscle strength and/or endurance are integral to individual performance, and is inclusive of both aerobic and anaerobic metabolic conditions. This includes active athletic competition, such as baseball, football, running, or Track & Field. It also includes any exercise activity designed to improve physical performance, directly or indirectly, via an improvement in muscle protein content (size), strength, and/or endurance, such as resistance training (circuit equipment, weight training), aerobics, Pilates, and/or calisthenics. Any improvement in athletic performance must include objective increases in speed, strength, muscle size (protein content), and/or endurance. It may also involve improved recovery from fatigue following exercise or athletic competition.
This includes an ability to increase muscle strength, muscle power, endurance, and muscle protein content (size), as well as to reduce fatigue and facilitate recovery following intense exercise or athletic competition. The benefits appear almost immediately in some cases, but are more likely to occur after several weeks of regular use of acteoside or extracts containing acteoside. […]
During the course of developing this invention, an effective oral daily dosage of acteoside to improve athletic performance was determined to be between 25 mg to 2,500 mg. […]

[2] = test system: prostaglandin biosynthesis; conditions: Arch Pharm Res 2006 29(6), 508-13; cited from earlier work
[3] = test system: free-radical induced oxidative stress; conditions: J Pharm Pharmacol 2004 56(6) 743-8; cited from earlier work

For `C[C@@H]1O[C@@H](O[C@@H]2[C@@H](O)[C@H](OCCc3ccc(O)c(O)c3)O[C@H](CO)[C@H]2OC(=O)/C=C/c2ccc(O)c(O)c2)[C@H](O)[C@H](O)[C@H]1O` [acteoside], the improving athletic performance [1] is listed as “effective in-vivo peroral agents for improving athletic performance”, the “inhibition of prostaglandin biosynthesis” value [2] is listed as “strong inhibitor” and the “inhibition of free-radical induced oxidative stress” value [3] is listed as “strong inhibitor”.
